From patent US20230144023A1, “USE OF BUTYLPHTHALIDE AND DERIVATIVE THEREOF” (CSPC NBP PHARMACEUTICAL CO., LTD, priority 2020, published 2023)
Read-outs that look alike come from different tables or passages of the source.

Columns and labels:
A549 = assay: In vitro tumor cell proliferation, MTT (Example 7); details: Homo sapiens, A549, 72 h
MM.1S xenograft tumor = assay: Influence of NBP on in vivo anti-tumor efficacy of Bortezomib, MM.1S xenograft (Example 8); set-up: species or system Nu/Nu mice
Description: After in vitro resuscitation and passage of MM.1S cells to a sufficient amount, the cells were counted by a microscope, and diluted with a serum-free medium to adjust the cell count to about 1×10^8 cells/mL. The cell suspension was kept in an ice-water bath. The MM.1S cell suspension was extracted by a sterile syringe and inoculated into the subcutaneous tissue of the forelimb axilla of the Nu/Nu mice. […] Monotherapy group of Palbociclib: intragastric administration at 70 mg/kg, qd (the administration was commenced on day 0); […] The solvent group was given the solvent at the same frequency and with the same administration method as Bortezomib and NBP. The administration period was 16 days, and the administration volume was 10 mL/kg. […] Animals were weighed at set time once per day after the commencement of administration. After animals were grouped, the long diameter and the short diameter of the tumor were measured twice every week. […] V=1⁄2×A×B^2 […] (4) Tumor growth inhibition rate: Note: V: tumor volume; A: tumor length; B: tumor width; RTV: relative tumor volume; TVnd: tumor volume on day n; TV0d: tumor volume on day 0; […]: mean relative tumor volume on day n; TVXn: mean tumor volume of the therapy group on day n; TVX0: mean tumor volume of the therapy group on day 0; TVMn: mean tumor volume of the solvent group on day n; and TVM0: mean tumor volume of the solvent group on day 0 At the end of the experiment, after the animals were euthanized by CO2 asphyxiation, the tumors were excised and weighed.

[1] = PK of Bortezomib and butylphthalide in plasma of MM.1S tumor-bearing mice (Example 8); format: in vivo, Nu/Nu mice
Description: Monotherapy group of Bortezomib: administered by intraperitoneal injection at 0.5 mg/kg, biw (on days 0, 3, 7, 10, and 15);
Monotherapy group of NBP: administered by transoral gavage at 60 mg/kg, bid (the administration was commenced on day 0), and the second dose of NBP was administered with an interval from the first dose of ≥4 h;
Monotherapy group of Palbociclib: intragastric administration at 70 mg/kg, qd (the administration was commenced on day 0);
Combined therapy group of NBP/Bortezomib: the administration frequency and dose were the same as the frequency and dose of the monotherapy group of NBP and the monotherapy group of Bortezomib, respectively.
Combined therapy group of Bortezomib/Palbociclib: the administration frequency and dose were the same as the frequency and dose of the monotherapy group of Bortezomib and the monotherapy group of Palbociclib, respectively.
Combined therapy group of NBP/Bortezomib/Palbociclib: the administration frequency and dose were the same as the frequency and dose of the monotherapy group of NBP, the monotherapy group of Bortezomib, and the monotherapy group of Palbociclib, respectively.
Before administration of the last dose of Bortezomib (0 h), and 5 min, 15 min, 30 min, 1 h, 2 h, 4 h, 8 h, 24 h after the administration, blood was sampled (as detailed in Table 8) (except that blood was sampled from the mice in the solvent group only at 0 h), anticoagulated with heparin, and centrifuged to separate plasma, which was stored at −80° C. for later use. Bortezomib and butyphthalide in the plasma were determined by protein precipitation-LC/MS/MS.

[2] = PK of total paclitaxel in plasma, B16/F10 tumor-bearing mice (Example 3); format: in vivo, C57BL/6N mice; details: NBP 3, 10, 30 mg/kg bid i.p. with ab-PTX 25 mg/kg; Cmax, AUC0-t and other indexes
Description: Administration volume: 10 mL/kg. […] The administration was performed for 15 consecutive days. The administration volume was 10 mL/kg. Before the administration of the last dose of ab-PTX (0 h), and 5 min, 0.5 […] after the administration, blood was sampled (as detailed in Table 5), anticoagulated with heparin, and centrifuged to separate plasma, which was stored at -80° C. for later use. The total amount of paclitaxel in the plasma was determined by protein precipitation-LC/MS/MS.

JIMT-1 xenograft tumor = assay: Influence of NBP on antitumor efficacy of ab-PTX against JIMT-1 xenograft tumor (Example 4); format: in vivo, Nu/Nu mice
Description: After in vitro resuscitation and passage of JIMT-1 cells to a sufficient amount, the cells were counted by a microscope, and diluted with a serum-free medium to adjust the cell count to about 1×10^8 cells/mL. The cell suspension was kept in an ice-water bath. […] Monotherapy group of ab-PTX: intravenous injection of ab-PTX at 15 mg/kg once every week, qw (on days 0, 7, 14, 21, and 28). Administration period: 28 days. Administration volume: 10 mL/kg. Monotherapy group of NBP: […] The administration volume was 10 mL/kg. […] The administration period was 28 days. The administration volume was 10 mL/kg. The solvent group was given normal saline at the same frequency and with the same method as ab-PTX, and was given vegetable oil at the same frequency and with the same method as NBP. […] Animals were weighed at set time once per day after the commencement of administration. At the end of the experiment, after the animals were euthanized by CO2 asphyxiation, the tumors were excised and weighed.

HT29 = assay: In vitro tumor cell proliferation, MTT (Example 7); details: Homo sapiens, HT-29, 72 h
[3] = PK of total paclitaxel in plasma, JIMT-1 tumor-bearing mice (Example 4); format: in vivo, Nu/Nu mice; details: NBP 6, 20, 60 mg/kg bid gavage with ab-PTX 15 mg/kg i.v.
Description: Administration period: 28 days. Administration volume: 10 mL/kg.
The administration period was 28 days. The administration volume was 10 mL/kg.

[4] = read-out: Inhibition rate, First dose
[5] = read-out: Inhibition rate, Mean ± SD
[6] = read-out: Inhibition rate, Second dose
[7] = read-out: Inhibition rate, Third dose
[8] = day 14, Bor 0.5 mg/kg, Pal 70 mg/kg, NBP 60 mg/kg, alone or combined
[9] = day 14, Bor 0.5 mg/kg, Pal 70 mg/kg, NBP 60 mg/kg, alone or combined, mean, n=6
[10] = NBP 60 mg/kg gavage, Bor 0.5 mg/kg, Pal 70 mg/kg, mean ± SD, n=6

- influence of NBP on the in vivo pharmacokinetic behaviors of monotherapy of Bortezomib and combined therapy of Bortezomib/Palbociclib ([1]; NBP 60 mg/kg bid): did not have obvious influence
- CI of NBP [1, 10]: 2880 ± 1730 mL/min/kg
- Vd of NBP [1, 10]: 1445 ± 298 L/kg
- AUC(0-t) ([1]; Nu/Nu, mouse, plasma, po, NBP 60 mg/kg gavage, Bor 0.5 mg/kg, Pal 70 mg/kg, mean ± SD, n=6, read-out: AUC0-t of NBP in plasma): 236 ± 100 ng·h/mL
- Cmax ([1]; Nu/Nu, mouse, plasma, po, NBP 60 mg/kg gavage, Bor 0.5 mg/kg, Pal 70 mg/kg, mean ± SD, n=6, read-out: Cmax of NBP in plasma): 117 ± 88 ng/mL
- MRT last ([1]; Nu/Nu, mouse, plasma, po, NBP 60 mg/kg gavage, Bor 0.5 mg/kg, Pal 70 mg/kg, mean ± SD, n=6, read-out: MRT0-t of NBP): 3.1 ± 0.6 h
- half-life ([1]; Nu/Nu, mouse, plasma, po, NBP 60 mg/kg gavage, Bor 0.5 mg/kg, Pal 70 mg/kg, mean ± SD, n=6, read-out: t1/2 of NBP in plasma (converted)): 10.1 ± 9.7 h
- influence of NBP on the PK behavior of ab-PTX in mice [2]: did not affect
- influence of combined butylphthalide on the pharmacokinetic behavior of paclitaxel in the plasma [3]: did not affect
SMILES: CCCCC1OC(=O)c2ccccc21 (stereo not shown) [NBP, 3-n-butylphthalide]
- inhibition at 30 µM (A549; [4]): -11.1%
- inhibition at 30 µM (A549; [5]): 1.11 ± 10.8%
- inhibition at 30 µM (A549; [6]): 9.68%
- inhibition at 30 µM (A549; [7]): 4.74%
- influence of NBP on the tumor inhibition efficacy of Bortezomib (MM.1S xenograft tumor; NBP/Bortezomib 60/0.5 mg/kg compared with monotherapy group of Bortezomib, end of experiment): did not have obvious negative influence
- influence of NBP on the antitumor efficacy of combined therapy of Bortezomib/Palbociclib (MM.1S xenograft tumor; NBP/Bortezomib/Palbociclib compared with Bortezomib/Palbociclib, end of experiment): did not have obvious negative influence
- body weights of the mice (MM.1S xenograft tumor; between groups, P>0.05): no significant difference
- Body weight (MM.1S xenograft tumor; day 14, Bor 0.5 mg/kg i.p. biw, Pal 70 mg/kg qd i.g., NBP 60 mg/kg bid gavage, alone or combined, mean, n=6): 24.9 g
- T/C % (MM.1S xenograft tumor; [8]): 73.8%
- TGI % (MM.1S xenograft tumor; [8]): 25.8%
- RTV (MM.1S xenograft tumor; [9]): 7.2
- TV (MM.1S xenograft tumor; [9]): 938.1 mm^3
- Tumor weight inhibition rate (MM.1S xenograft tumor; end of experiment, Bor 0.5 mg/kg, Pal 70 mg/kg, NBP 60 mg/kg, alone or combined): 36.9%
- Tumor weight (MM.1S xenograft tumor; end of experiment, Bor 0.5 mg/kg, Pal 70 mg/kg, NBP 60 mg/kg, alone or combined, mean, n=6, in g (unit assumed)): 1.040
- Inhibition rate (tumor weight) (JIMT-1 xenograft tumor; NBP 60 mg/kg bid gavage alone): 4.0%
- Tumor weight (JIMT-1 xenograft tumor; NBP 60 mg/kg bid gavage alone, mean ± SD, n=8): 0.9570 ± 0.2529 g
- tumor growth (JIMT-1 xenograft tumor; ab-PTX 15 mg/kg qw i.v., NBP 60 mg/kg bid gavage, compared with the solvent group): not obviously affected
- body weights of the mice (JIMT-1 xenograft tumor; ab-PTX 15 mg/kg qw i.v., NBP 6, 20, 60 mg/kg bid gavage, 28 days): no significant difference
- inhibition at 30 µM (HT29; [4]): 9.98%
- inhibition at 30 µM (HT29; [5]): 10.7 ± 2.79%
- inhibition at 30 µM (HT29; [6]): 8.27%
- inhibition at 30 µM (HT29; [7]): 13.7%
